Test results: paper PMC12787591 (Nutrients, 2025)

Target: T1, α-amylase (α-salivary amylase)
T1 construct: gene AMY1A
Experiment: enzyme inhibition assay with soluble starch and […],5-dinitrosalicylic acid
Type: biochemical, Homo sapiens

OC[C@H]1NC[C@H](O)[C@@H](O)[C@@H]1O [DNJ, 1-Deoxynojirimycin]
α-Amylase Experiment / IC50: 22.69 µg/mL
